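Protocol summary: plate cells (96-well), add compound at 5 concentrations, incubate 48 h, interpolate endpoints linearly. GI50 is the concentration that inhibits growth by half. At the TGI there is no net growth.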
Experiments:
Test in all cases: NCI tumour cell line growth inhibition, 48 h
IGROV1 ovarian = test system: IGROV1 ovarian
BT-549 breast = test system: BT-549 breast
A549 NSCLC = test system: A549 NSCLC
MCF7 breast = test system: MCF7 breast
SNB-75 CNS = test system: SNB-75 CNS
SNB-19 CNS = test system: SNB-19 CNS
OVCAR-3 ovarian = test system: OVCAR-3 ovarian
MDA-MB-231 breast = test system: MDA-MB-231 breast
786-0 renal = test system: 786-0 renal
SK-OV-3 ovarian = test system: SK-OV-3 ovarian

In the case of C[N+](C)(CCCCCC[N+](C)(C)CCCN1C(=O)c2cc3ccccc3cc2C1=O)CCCN1C(=O)c2ccccc2C1=O, the GI50 (IGROV1 ovarian) is reported as over 37.5 µM, the TGI (IGROV1 ovarian) is reported as over 37.5 µM and the GI50 (BT-549 breast) is reported as over 37.5 µM. It also gave a TGI (BT-549 breast) of over 37.5 µM, a GI50 (A549 NSCLC) of over 37.5 µM and a TGI (A549 NSCLC) of over 37.5 µM. The GI50 (MCF7 breast) was over 37.5 µM, the TGI (MCF7 breast) was over 37.5 µM and the GI50 (SNB-75 CNS) was over 37.5 µM. It also gave a TGI (SNB-75 CNS) of over 37.5 µM, a GI50 (SNB-19 CNS) of over 37.5 µM and a TGI (SNB-19 CNS) of over 37.5 µM. For the same compound, the GI50 (OVCAR-3 ovarian) was over 37.5 µM, the TGI (OVCAR-3 ovarian) was over 37.5 µM and the GI50 (MDA-MB-231 breast) was over 37.5 µM. It also gave a TGI (MDA-MB-231 breast) of over 37.5 µM, a GI50 (786-0 renal) of over 37.5 µM and a TGI (786-0 renal) of over 37.5 µM. It also gave a GI50 (SK-OV-3 ovarian) of over 37.5 µM and a TGI (SK-OV-3 ovarian) of over 37.5 µM.

CC(C)(O)C1OCC(C2CCC3(C)C4=CCC5C(C)(C)C(O)CCC5(C)C4CCC23C)CC1O (stereo not given) gave a TGI (IGROV1 ovarian) of 31 µM, a TGI (BT-549 breast) of 24.8 µM and a TGI (A549 NSCLC) of 31.8 µM. It also gave a TGI (MCF7 breast) of 23.8 µM, a TGI (SNB-75 CNS) of 34.6 µM and a TGI (SNB-19 CNS) of 36.9 µM. The TGI (OVCAR-3 ovarian) was 40 µM, the TGI (MDA-MB-231 breast) was 28.6 µM and the TGI (786-0 renal) was 27.3 µM. It also gave a TGI (SK-OV-3 ovarian) of 31.5 µM.

COC(=O)/C(=C\c1c(C)[nH]c2ccccc12)S(=O)(=O)c1ccccc1 was tested, and the GI50 (IGROV1 ovarian) was 1.53 µM, the TGI (IGROV1 ovarian) was 8.94 µM and the GI50 (BT-549 breast) was 5.4 µM. The TGI (BT-549 breast) was 25.5 µM, the GI50 (A549 NSCLC) was 4.87 µM and the TGI (A549 NSCLC) was 64 µM. For the same compound, the GI50 (MCF7 breast) was 2.81 µM, the TGI (MCF7 breast) was 12.5 µM and the GI50 (SNB-75 CNS) was 3.08 µM. For the same compound, the TGI (SNB-75 CNS) was 14.6 µM, the GI50 (SNB-19 CNS) was 7.59 µM and the TGI (SNB-19 CNS) was 22.1 µM. It also gave a GI50 (OVCAR-3 ovarian) of 2.7 µM, a TGI (OVCAR-3 ovarian) of 7.56 µM and a GI50 (MDA-MB-231 breast) of 2.74 µM. For the same compound, the TGI (MDA-MB-231 breast) was 14.5 µM, the GI50 (786-0 renal) was 8.23 µM and the TGI (786-0 renal) was 24.1 µM. It also gave a GI50 (SK-OV-3 ovarian) of 9.27 µM and a TGI (SK-OV-3 ovarian) of 41.4 µM.

OCCCCC#Cc1ccccc1C#Cc1ccccc1C(F)(F)F gave a GI50 (IGROV1 ovarian) of 11.2 µM, a TGI (IGROV1 ovarian) of 23.2 µM and a GI50 (BT-549 breast) of 17.1 µM. The TGI (BT-549 breast) was 31.7 µM, the GI50 (A549 NSCLC) was 4.36 µM and the TGI (A549 NSCLC) was 16.6 µM. For the same compound, the GI50 (MCF7 breast) was 10.6 µM, the TGI (MCF7 breast) was 31.6 µM and the GI50 (SNB-75 CNS) was 18.7 µM. It also gave a TGI (SNB-75 CNS) of 35.9 µM, a GI50 (SNB-19 CNS) of 18 µM and a TGI (SNB-19 CNS) of 34.3 µM. It also gave a GI50 (OVCAR-3 ovarian) of 2.3 µM, a TGI (OVCAR-3 ovarian) of 9.28 µM and a GI50 (MDA-MB-231 breast) of 2.83 µM. For the same compound, the TGI (MDA-MB-231 breast) was 12.4 µM, the GI50 (786-0 renal) was 10.3 µM and the TGI (786-0 renal) was 24.9 µM. It also gave a GI50 (SK-OV-3 ovarian) of 17.7 µM and a TGI (SK-OV-3 ovarian) of 32.7 µM.

With O=C1OC(=O)C2C1C1(c3ccccc3)C(c3ccccc3)=C(c3ccccc3)C2(c2ccccc2)S1=O (stereo not given) the GI50 (IGROV1 ovarian) was over 100 µM, the TGI (IGROV1 ovarian) was over 100 µM and the GI50 (BT-549 breast) was 26.3 µM. For the same compound, the TGI (BT-549 breast) was over 100 µM, the GI50 (A549 NSCLC) was over 100 µM and the TGI (A549 NSCLC) was over 100 µM. For the same compound, the GI50 (MCF7 breast) was over 100 µM, the TGI (MCF7 breast) was over 100 µM and the GI50 (SNB-75 CNS) was over 100 µM. It also gave a TGI (SNB-75 CNS) of over 100 µM, a GI50 (SNB-19 CNS) of over 100 µM and a TGI (SNB-19 CNS) of over 100 µM. It also gave a GI50 (OVCAR-3 ovarian) of over 100 µM, a TGI (OVCAR-3 ovarian) of over 100 µM and a GI50 (MDA-MB-231 breast) of over 100 µM. For the same compound, the TGI (MDA-MB-231 breast) was over 100 µM, the GI50 (786-0 renal) was over 100 µM and the TGI (786-0 renal) was over 100 µM. It also gave a GI50 (SK-OV-3 ovarian) of over 100 µM and a TGI (SK-OV-3 ovarian) of over 100 µM.

Compound Cc1ccc2c(N)c(C(=O)N[C@H]3CCc4cc(N5CC6CCC(C5)N6)ccc4C3)sc2n1 has a GI50 (IGROV1 ovarian) of 0.348 µM, a TGI (IGROV1 ovarian) of 2.72 µM and a GI50 (BT-549 breast) of 0.927 µM. It also gave a TGI (BT-549 breast) of 3.06 µM, a GI50 (A549 NSCLC) of 0.207 µM and a TGI (A549 NSCLC) of 2.03 µM. It also gave a GI50 (MCF7 breast) of 0.283 µM, a TGI (MCF7 breast) of 2.43 µM and a GI50 (SNB-75 CNS) of 0.355 µM. For the same compound, the TGI (SNB-75 CNS) was 2.83 µM, the GI50 (SNB-19 CNS) was 0.325 µM and the TGI (SNB-19 CNS) was 2.49 µM. For the same compound, the GI50 (OVCAR-3 ovarian) was 0.547 µM, the TGI (OVCAR-3 ovarian) was 2.63 µM and the GI50 (MDA-MB-231 breast) was 0.606 µM. The TGI (MDA-MB-231 breast) was 2.71 µM, the GI50 (786-0 renal) was 0.497 µM and the TGI (786-0 renal) was 3.86 µM. It also gave a GI50 (SK-OV-3 ovarian) of 0.422 µM and a TGI (SK-OV-3 ovarian) of 2.99 µM.

Work on COc1ccc(-c2nc(-c3ccccc3)c(-c3ccccc3)n2C2CC2)cc1OC1CCCC1 yielded a GI50 (IGROV1 ovarian) of 77.8 µM, a TGI (IGROV1 ovarian) of over 165 µM and a GI50 (BT-549 breast) of over 165 µM. The TGI (BT-549 breast) was over 165 µM, the GI50 (A549 NSCLC) was 48.7 µM and the TGI (A549 NSCLC) was over 165 µM. It also gave a GI50 (MCF7 breast) of 67.6 µM, a TGI (MCF7 breast) of over 165 µM and a GI50 (SNB-75 CNS) of 48.4 µM. For the same compound, the TGI (SNB-75 CNS) was over 165 µM, the GI50 (SNB-19 CNS) was over 165 µM and the TGI (SNB-19 CNS) was over 165 µM. It also gave a GI50 (OVCAR-3 ovarian) of 102 µM, a TGI (OVCAR-3 ovarian) of over 165 µM and a GI50 (MDA-MB-231 breast) of over 165 µM. It also gave a TGI (MDA-MB-231 breast) of over 165 µM, a GI50 (786-0 renal) of 98.2 µM and a TGI (786-0 renal) of over 165 µM. The GI50 (SK-OV-3 ovarian) was over 165 µM and the TGI (SK-OV-3 ovarian) was over 165 µM.

Cc1cc2c(F)c(Oc3ncnn4cc(OC[C@@H](C)OC(=O)[C@H](C)N)c(C)c34)ccc2[nH]1 gave a GI50 (IGROV1 ovarian) of 9.1 µM, a TGI (IGROV1 ovarian) of 23.4 µM and a GI50 (BT-549 breast) of 8.43 µM. It also gave a TGI (BT-549 breast) of 22 µM, a GI50 (A549 NSCLC) of 8.86 µM and a TGI (A549 NSCLC) of 23.3 µM. For the same compound, the GI50 (MCF7 breast) was 8.58 µM, the TGI (MCF7 breast) was 24 µM and the GI50 (SNB-75 CNS) was 9.42 µM. The TGI (SNB-75 CNS) was 24.6 µM, the GI50 (SNB-19 CNS) was 9.99 µM and the TGI (SNB-19 CNS) was 23 µM. For the same compound, the GI50 (OVCAR-3 ovarian) was 10.7 µM, the TGI (OVCAR-3 ovarian) was 23.7 µM and the GI50 (MDA-MB-231 breast) was 14.1 µM. For the same compound, the TGI (MDA-MB-231 breast) was 29.7 µM, the GI50 (786-0 renal) was 12 µM and the TGI (786-0 renal) was 26.9 µM. The GI50 (SK-OV-3 ovarian) was 12.4 µM and the TGI (SK-OV-3 ovarian) was 26.7 µM.

Work on COc1c(O)ccc2c1CN1CCc3cc4c(cc3C1C2)OCO4 (stereo not given) yielded a TGI (IGROV1 ovarian) of over 100 µM, a TGI (BT-549 breast) of over 100 µM and a TGI (A549 NSCLC) of over 100 µM. The TGI (MCF7 breast) was over 63.1 µM, the TGI (SNB-75 CNS) was 65.3 µM and the TGI (SNB-19 CNS) was over 100 µM. The TGI (OVCAR-3 ovarian) was over 83.2 µM, the TGI (MDA-MB-231 breast) was over 100 µM and the TGI (786-0 renal) was over 100 µM. The TGI (SK-OV-3 ovarian) was over 100 µM.

For C[C@]12CC[C@@H]3c4ccc(O)cc4CC[C@H]3[C@@H]1CC[C@@H]2NS(=O)(=O)Cc1ccc(Cl)cc1, the GI50 (IGROV1 ovarian) was 2.99 µM, the TGI (IGROV1 ovarian) was 10.4 µM and the GI50 (BT-549 breast) was 2.35 µM. It also gave a TGI (BT-549 breast) of 5.74 µM, a GI50 (A549 NSCLC) of 2.98 µM and a TGI (A549 NSCLC) of 11 µM. It also gave a GI50 (MCF7 breast) of 2.92 µM, a TGI (MCF7 breast) of 9.62 µM and a GI50 (SNB-75 CNS) of 2.08 µM. For the same compound, the TGI (SNB-75 CNS) was 9.75 µM, the GI50 (SNB-19 CNS) was 3.66 µM and the TGI (SNB-19 CNS) was 47.1 µM. The GI50 (OVCAR-3 ovarian) was 1.91 µM, the TGI (OVCAR-3 ovarian) was 3.83 µM and the GI50 (MDA-MB-231 breast) was 1.75 µM. The TGI (MDA-MB-231 breast) was 4.54 µM, the GI50 (786-0 renal) was 2.66 µM and the TGI (786-0 renal) was 6.87 µM. It also gave a GI50 (SK-OV-3 ovarian) of 3.02 µM and a TGI (SK-OV-3 ovarian) of 7.77 µM.

Compound CC(NNC(=S)N1CCCCCC1)c1ccc2ccccc2n1 (stereo not given) has a GI50 (IGROV1 ovarian) of 1.85 µM, a TGI (IGROV1 ovarian) of 51.3 µM and a GI50 (BT-549 breast) of 7.45 µM. For the same compound, the TGI (BT-549 breast) was 58.9 µM, the GI50 (A549 NSCLC) was 1.13 µM and the TGI (A549 NSCLC) was 27 µM. For the same compound, the GI50 (MCF7 breast) was 0.338 µM, the TGI (MCF7 breast) was 15.2 µM and the GI50 (SNB-75 CNS) was 12.5 µM. It also gave a TGI (SNB-75 CNS) of 27.5 µM, a GI50 (SNB-19 CNS) of 4.16 µM and a TGI (SNB-19 CNS) of over 100 µM. For the same compound, the GI50 (OVCAR-3 ovarian) was 0.41 µM, the TGI (OVCAR-3 ovarian) was 18.8 µM and the GI50 (MDA-MB-231 breast) was 2.03 µM. The TGI (MDA-MB-231 breast) was 20.5 µM, the GI50 (786-0 renal) was 3.38 µM and the TGI (786-0 renal) was 16.8 µM. For the same compound, the GI50 (SK-OV-3 ovarian) was 6.24 µM and the TGI (SK-OV-3 ovarian) was 26.9 µM.

— PubChem BioAssay (NCI)
